Assay [1] addresses T1, Thermolysin (Bacillus thermoproteolyticus, UniProt P00800).
T1 sequence (P00800 whole entry): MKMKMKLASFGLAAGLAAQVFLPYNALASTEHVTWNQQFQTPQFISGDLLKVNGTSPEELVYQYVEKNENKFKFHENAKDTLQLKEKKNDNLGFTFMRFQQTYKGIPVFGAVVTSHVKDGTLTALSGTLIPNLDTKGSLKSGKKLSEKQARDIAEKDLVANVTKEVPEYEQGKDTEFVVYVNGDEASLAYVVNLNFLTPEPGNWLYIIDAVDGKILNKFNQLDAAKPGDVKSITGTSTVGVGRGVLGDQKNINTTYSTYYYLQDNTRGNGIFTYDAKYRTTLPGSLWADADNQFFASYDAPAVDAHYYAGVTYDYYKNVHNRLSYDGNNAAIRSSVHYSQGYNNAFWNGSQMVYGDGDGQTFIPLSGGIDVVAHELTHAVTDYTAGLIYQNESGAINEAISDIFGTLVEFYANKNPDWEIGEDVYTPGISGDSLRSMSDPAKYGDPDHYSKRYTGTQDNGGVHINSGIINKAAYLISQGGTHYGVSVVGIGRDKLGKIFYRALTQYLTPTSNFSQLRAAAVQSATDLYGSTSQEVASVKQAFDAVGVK
Briefly: Inhibitory activity against thermolysin.

Assay [2] deals with T1, Thermolysin. Briefly: Inhibitory activity against thermolysin; No inhibitory activity was observed up to concentration of 20 mM.

By Ki is commonly meant a measure of affinity in units of concentration, obtained from inhibition or displacement. Low values mean higher affinity, high ones lower affinity. Turning to `CNC(=O)[C@@H](Cc1ccccc1)CN(O)C(C)=O`, the affinity at Thermolysin [1], expressed as Ki, was 3950 µM.

On Thermolysin [1], `CNC(=O)[C@@H](Cc1ccccc1)CN(O)C=O` had an inhibition constant (Ki) of 1.66 µM.

Turning to `CCC(=O)N(O)C[C@@H](Cc1ccccc1)C(=O)NC`, the Ki result at Thermolysin [2] was “No inhibition”.

For the molecule `COC(=O)[C@@H](CC(C)C)CN(O)C=O`, the inhibition constant Ki at Thermolysin [1] stood at 22.5 µM.

As to `CCC(=O)N(O)C[C@H](Cc1ccccc1)C(=O)NC`, at Thermolysin [1], the affinity corresponds to a Ki of 7500 µM. This Ki lies about 330-fold higher than the previous one.

For `CNC(=O)[C@H](Cc1ccccc1)CN(O)C=O`, at Thermolysin [1], affinity was put at a Ki of 68.2 µM.

As to `COC(=O)[C@@H](CC(C)C)N(O)C=O`, the Ki on Thermolysin [1] was 44 µM.

As for `CNC(=O)[C@H](Cc1ccccc1)CN(O)C(C)=O`, at Thermolysin [2], the inhibition constant (Ki) entry was “No inhibition”.

Source of the values: ChEMBL document CHEMBL1130707, “Inhibition stereochemistry of hydroxamate inhibitors for thermolysin” (Bioorg Med Chem Lett, 1998).
